Data from PubChem BioAssay (NCI).
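Each compound was tested at five concentrations against cells in 96-well plates for 48 hours. Definition used: TGI = concentration required for complete inhibition of growth.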

How the values were obtained:
Assay in all cases: NCI-60 cell line screen, 48 h
A498 renal = test system: A498 renal
HCT-116 colon = test system: HCT-116 colon
HCT-15 colon = test system: HCT-15 colon
HT29 colon = test system: HT29 colon
MALME-3M melanoma = test system: MALME-3M melanoma
MDA-MB-231 breast = test system: MDA-MB-231 breast
NCI-H23 lung = test system: NCI-H23 lung
NCI-H460 lung = test system: NCI-H460 lung
NCI-H522 lung = test system: NCI-H522 lung
OVCAR-3 ovarian = test system: OVCAR-3 ovarian
OVCAR-5 ovarian = test system: OVCAR-5 ovarian
RXF 393 renal = test system: RXF 393 renal
SF-268 CNS = test system: SF-268 CNS
SF-539 CNS = test system: SF-539 CNS
SK-MEL-2 melanoma = test system: SK-MEL-2 melanoma
SK-MEL-28 melanoma = test system: SK-MEL-28 melanoma
SN12C renal = test system: SN12C renal
SR leukemia = test system: SR leukemia
U251 CNS = test system: U251 CNS
UACC-62 melanoma = test system: UACC-62 melanoma

| Compound | TGI (A498 renal) [µM] | TGI (HCT-116 colon) [µM] | TGI (HCT-15 colon) [µM] | TGI (HT29 colon) [µM] | TGI (MALME-3M melanoma) [µM] | TGI (MDA-MB-231 breast) [µM] | TGI (NCI-H23 lung) [µM] | TGI (NCI-H460 lung) [µM] | TGI (NCI-H522 lung) [µM] | TGI (OVCAR-3 ovarian) [µM] | TGI (OVCAR-5 ovarian) [µM] | TGI (RXF 393 renal) [µM] | TGI (SF-268 CNS) [µM] | TGI (SF-539 CNS) [µM] | TGI (SK-MEL-2 melanoma) [µM] | TGI (SK-MEL-28 melanoma) [µM] | TGI (SN12C renal) [µM] | TGI (SR leukemia) [µM] | TGI (U251 CNS) [µM] | TGI (UACC-62 melanoma) [µM] |
| --- | --- | --- | --- | --- | --- | --- | --- | --- | --- | --- | --- | --- | --- | --- | --- | --- | --- | --- | --- | --- |
| O=C(Oc1cccnc1)c1cc2cc(CCl)ccc2oc1=O | > 100 | 38.7 | 58.5 | 39.9 | 54.9 | 43.2 | 39.5 | > 100 | 35.5 | 57.9 | 64.6 | 31.5 | 45.3 | > 100 | 54 | > 100 | 50.1 | 73.6 | 57.2 | 36.9 |
| CC(=O)O/C(=C1\C[C@H]2[C@@H]3CC=C4C[C@@H](OC(C)=O)CC[C@]4(C)[C@H]3CC[C@]2(C)C1=O)C(F)(F)F | 45.1 | 18.8 | 17.6 | 29.2 | 9.53 | 27.6 | 18.3 | 18.3 | 8.99 | 21.2 | 58.6 | 15 | 19.9 | 15.2 | 17.2 | 31.9 | 24.1 | 10.9 | 17.7 | 20.2 |
| N#CC(OC1OC(COC2OC(CO)C(O)C(O)C2O)C(O)C(O)C1O)c1ccccc1 (stereo unspecified) | > 225 | > 225 | > 225 | > 225 | > 225 |  | > 225 | > 225 | > 225 | > 225 | > 225 | > 225 | > 225 | > 225 | > 225 | > 225 | > 225 |  | > 225 | > 225 |
| Cc1cc(C)c(C[C@H]2COC(=O)[C@]2(O)Cc2c(C)cc(C)cc2C)c(C)c1 | 30.9 | 43 | 36.2 | > 100 | 29.9 | 35.9 | 47.2 | 33.3 | 34.4 | 31.3 | 35.9 | 25.4 | 30 | 74.4 | 40.2 | 76.5 | 36.8 | > 100 | 38.4 | 28.5 |
| CCOC(=O)CO/N=C1/C(c2c(O)[nH]c3ccccc23)=Nc2ccccc21 | 38.2 | > 100 | > 100 | > 100 | > 100 | 43.3 | > 100 | > 100 | > 100 | 55 | > 100 | 29.2 | > 100 | > 100 | > 100 | > 100 | > 100 |  | 66.1 | > 100 |
| CN1C(=O)CSC1=S | > 100 | > 100 | > 100 | > 100 | > 100 |  | > 100 | > 100 | > 100 | > 100 | > 100 | > 100 | > 100 | > 100 | > 100 | > 100 | > 100 | > 100 | > 100 | > 100 |
